The values below come from patent publication US8791107B2, “N-substituted oxazinopteridines and oxazinopteridinones” (Takeda Pharmaceutical Company Limited, priority 2011, dated 2014).

In this experiment the target is T1, PI3Kδ (Homo sapiens, UniProt O00329).
T1 construct: The protein is full length and co-expressed with untagged PIK3R1; GST; purchased Invitrogen PV5274
T1 sequence (O00329 whole entry): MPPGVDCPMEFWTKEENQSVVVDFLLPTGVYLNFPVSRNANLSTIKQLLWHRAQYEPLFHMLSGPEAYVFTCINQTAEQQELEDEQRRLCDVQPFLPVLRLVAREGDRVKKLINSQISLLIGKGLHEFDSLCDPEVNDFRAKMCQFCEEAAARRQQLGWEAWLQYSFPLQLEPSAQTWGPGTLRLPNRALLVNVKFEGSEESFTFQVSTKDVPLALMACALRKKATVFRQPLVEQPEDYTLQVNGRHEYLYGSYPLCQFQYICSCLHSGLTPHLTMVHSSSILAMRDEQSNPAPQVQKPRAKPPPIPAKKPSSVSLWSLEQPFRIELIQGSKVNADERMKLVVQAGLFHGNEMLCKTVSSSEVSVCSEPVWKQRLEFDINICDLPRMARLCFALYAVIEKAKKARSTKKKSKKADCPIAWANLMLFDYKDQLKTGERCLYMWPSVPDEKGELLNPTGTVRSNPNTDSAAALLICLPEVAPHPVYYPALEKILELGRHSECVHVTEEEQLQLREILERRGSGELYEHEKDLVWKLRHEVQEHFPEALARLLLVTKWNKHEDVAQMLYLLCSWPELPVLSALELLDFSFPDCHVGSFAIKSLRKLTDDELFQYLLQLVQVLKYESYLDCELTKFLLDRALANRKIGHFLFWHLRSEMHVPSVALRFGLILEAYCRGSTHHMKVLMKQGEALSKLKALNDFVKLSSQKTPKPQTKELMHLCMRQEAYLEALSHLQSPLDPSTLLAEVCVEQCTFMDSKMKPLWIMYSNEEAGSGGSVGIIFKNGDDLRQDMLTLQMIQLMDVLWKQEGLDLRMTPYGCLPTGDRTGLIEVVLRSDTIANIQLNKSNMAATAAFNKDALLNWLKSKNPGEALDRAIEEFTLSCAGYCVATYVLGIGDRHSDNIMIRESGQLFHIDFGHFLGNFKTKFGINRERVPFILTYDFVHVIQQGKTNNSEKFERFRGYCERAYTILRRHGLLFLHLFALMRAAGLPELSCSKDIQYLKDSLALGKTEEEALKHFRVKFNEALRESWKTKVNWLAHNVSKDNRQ
T1 sequence (P27986 whole entry partner): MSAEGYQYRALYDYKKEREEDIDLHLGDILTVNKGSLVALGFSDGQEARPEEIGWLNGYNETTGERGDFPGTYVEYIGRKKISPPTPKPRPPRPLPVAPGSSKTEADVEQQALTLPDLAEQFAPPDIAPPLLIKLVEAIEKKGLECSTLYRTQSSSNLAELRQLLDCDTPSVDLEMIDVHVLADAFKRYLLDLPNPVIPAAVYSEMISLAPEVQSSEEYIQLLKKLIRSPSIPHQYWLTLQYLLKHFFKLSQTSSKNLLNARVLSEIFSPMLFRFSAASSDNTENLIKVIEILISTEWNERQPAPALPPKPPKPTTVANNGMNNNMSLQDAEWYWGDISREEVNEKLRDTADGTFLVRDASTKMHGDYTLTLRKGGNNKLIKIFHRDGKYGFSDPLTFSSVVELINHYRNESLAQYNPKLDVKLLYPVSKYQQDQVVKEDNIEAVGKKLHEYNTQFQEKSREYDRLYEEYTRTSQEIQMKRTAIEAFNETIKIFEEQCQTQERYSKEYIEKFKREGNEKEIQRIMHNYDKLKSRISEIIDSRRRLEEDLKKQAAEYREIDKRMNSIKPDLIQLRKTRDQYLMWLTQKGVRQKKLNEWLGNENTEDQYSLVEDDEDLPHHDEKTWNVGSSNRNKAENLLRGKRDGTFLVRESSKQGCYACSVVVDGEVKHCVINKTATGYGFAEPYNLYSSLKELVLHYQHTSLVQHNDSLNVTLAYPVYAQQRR
The experiment in a line: PI3Kδ inhibition, modified PIK3CD Adapta TR-FRET assay. It is filed as biochemical. The conditions noted are these: recombinant GST-tagged full length PIK3CD co-expressed with PIK3R1 (p85α); 2 μM ATP, 50 μM PIP2; read-out: PI3Kδ Inhibition (pIC50) (converted). As for the experimental part:
The activity of compounds as PI3Kδ inhibitors may be determined by a variety of methods, including in vitro and in vivo methods. The following in vitro assay measures a test compound's ability to inhibit PI3Kδ-mediated phosphorylation of PIP2 and ATP.
Recombinant GST-tagged PIK3CD is purchased from Invitrogen (Part Number: PV5274). The protein is full length and co-expressed with untagged PIK3R1, phosphoinositide-3-kinase regulatory subunit 1 (p85α). The protein is stored at −20° C. in 50 mM TRIS (pH 7.5), 150 mM NaCl, 0.5 mM EDTA, 0.02% Triton® X-100, 2 mM DTT, and 50% glycerol.
A modified PIK3CD Adapta® assay (Invitrogen, Carlsbad, Calif.) is used to measure PI3Kδ inhibition of the example compounds. The assay has two phases. In the first phase, kinase reaction components, which include the enzyme (PIK3CD), substrates (PIP2, ATP), test compound (inhibitor), and assay buffer are added to each well, and the reaction is allowed to incubate for a pre-determined period of time. […] In the presence of the inhibitor, the amount of ADP formed by the kinase reaction is reduced, and the resulting intact antibody-tracer interaction maintains a high TR-FRET signal.
The reaction buffer contains 50 mM Hepes (pH 7.5), 3 mM MgCl2, 1 mM EGTA, 100 mM NaCl, 0.03% CHAPS; 2 mM DTT is added fresh prior to each experiment. […] Next, test compounds (2 μL) from a source plate (5% dilution plate) are introduced into the wells. The final DMSO concentration in each assay well is 1%. […] Other wells contain test compounds serially diluted across the plate 11 times for a total of 12 data points. The kinase reactions are carried out at room temperature and are initiated by the addition of 4 μL of solution containing 2 μM ATP and 50 μM PIP2. […] This emission signal is referenced or “ratioed” to the emission from Eu at 620 nm. […] The percent inhibition for a given inhibitor concentration is computed from % conversion for the reaction and for the positive and negative controls.
Consider `CS(=O)(=O)c1ccc(CN2CC3COCCN3c3nc(-c4cncc5[nH]ccc45)ncc32)cc1` (centres unmarked) [Example 23, 5-(4-(methylsulfonyl)benzyl)-2-(1H-pyrrolo[2,3-c]pyridin-4-yl)-5,6,6a,7,9,10-hexahydro-[1,4]oxazino[3,4-h]pteridine], for which the IC50 was 0.00501 µM. The result for `CS(=O)(=O)c1ccc(CN2CC3COCCN3c3nc(-c4cnc5cc[nH]c5c4)ncc32)cc1` (centres unmarked) [Example 24, 5-(4-(methylsulfonyl)benzyl)-2-(1H-pyrrolo[3,2-b]pyridin-6-yl)-5,6,6a,7,9,10-hexahydro-[1,4]oxazino[3,4-h]pteridine] reads 0.0631 µM.

Regarding `CS(=O)(=O)c1ccc(CN2CC3COCCN3c3nc(-c4cnc5[nH]ccc5c4)ncc32)cc1` (centres unmarked) [Example 25, 5-(4-(methylsulfonyl)benzyl)-2-(1H-pyrrolo[2,3-b]pyridin-5-yl)-5,6,6a,7,9,10-hexahydro-[1,4]oxazino[3,4-h]pteridine], the IC50 is 0.158 µM. Take `Cc1nc(-c2cccc3[nH]ccc23)nc2c1N(Cc1ccc(S(C)(=O)=O)cc1)CC1COCCN21` (centres unmarked) [Example 26, 2-(1H-indol-4-yl)-4-methyl-5-(4-(methylsulfonyl)benzyl)-5,6,6a,7,9,10-hexahydro-[1,4]oxazino[3,4-h]pteridine]: the IC50 was 0.251 µM.

Take `Cc1nc(-c2cccc3[nH]ccc23)nc2c1N(CC1CC1)CC1COCCN21` (centres unmarked) [Example 27, 5-(cyclopropylmethyl)-2-(1H-indol-4-yl)-4-methyl-5,6,6a,7,9,10-hexahydro-[1,4]oxazino[3,4-h]pteridine]: the IC50 was 0.251 µM. The result for `CS(=O)(=O)c1ccc(CN2C[C@H]3COCCN3c3nc(-c4cccc5[nH]ccc45)ncc32)cc1` [Example 28, (S)-2-(1H-indol-4-yl)-5-(4-(methylsulfonyl)benzyl)-5,6,6a,7,9,10-hexahydro-[1,4]oxazino[3,4-h]pteridine] reads 0.631 µM; that for `CS(=O)(=O)c1ccc(CN2C[C@@H]3COCCN3c3nc(-c4cccc5[nH]ccc45)ncc32)cc1` [Example 29, (R)-2-(1H-indol-4-yl)-5-(4-(methylsulfonyl)benzyl)-5,6,6a,7,9,10-hexahydro-[1,4]oxazino[3,4-h]pteridine], 0.00501 µM; that for `CS(=O)(=O)c1ccc(CN2C[C@@H]3COCCN3c3nc(-c4cncc5[nH]ccc45)ncc32)cc1` [Example 30, (R)-5-(4-(methylsulfonyl)benzyl)-2-(1H-pyrrolo[2,3-c]pyridin-4-yl)-5,6,6a,7,9,10-hexahydro-[1,4]oxazino[3,4-h]pteridine], 0.00126 µM.

Turning to `CCc1nnc(CN2C[C@@H]3COCCN3c3nc(-c4cccc5[nH]ccc45)ncc32)o1` [Example 31, (R)-5-((5-ethyl-1,3,4-oxadiazol-2-yl)methyl)-2-(1H-indol-4-yl)-5,6,6a,7,9,10-hexahydro-[1,4]oxazino[3,4-h]pteridine], the IC50 was 0.00794 µM. The result for `c1ccc(OCCN2CC3COCCN3c3nc(-c4cccc5[nH]ccc45)ncc32)cc1` (centres unmarked) [Example 32, 2-(1H-indol-4-yl)-5-(2-phenoxyethyl)-5,6,6a,7,9,10-hexahydro-[1,4]oxazino[3,4-h]pteridine] reads 0.0794 µM; that for `c1csc(-c2nnc(CN3CC4COCCN4c4nc(-c5cccc6[nH]ccc56)ncc43)o2)c1` (centres unmarked) [Example 33, 2-(1H-indol-4-yl)-5-((5-(thiophen-2-yl)-1,3,4-oxadiazol-2-yl)methyl)-5,6,6a,7,9,10-hexahydro-[1,4]oxazino[3,4-h]pteridine], 0.0126 µM.

For the compound `O=C(CCN1CC2COCCN2c2nc(-c3cccc4[nH]ccc34)ncc21)NCc1ccco1` (centres unmarked) [Example 34, 3-(2-(1H-indol-4-yl)-6a,7,9,10-tetrahydro-[1,4]oxazino[3,4-h]pteridin-5(6H)-yl)-N-(furan-2-ylmethyl)propanamide], the IC50 was 0.0126 µM. For the compound `CCc1nnc(CN2CC3COCCN3c3nc(-c4cccc5[nH]ccc45)ncc32)o1` (centres unmarked) [Example 35, 5-((5-ethyl-1,3,4-oxadiazol-2-yl)methyl)-2-(1H-indol-4-yl)-5,6,6a,7,9,10-hexahydro-[1,4]oxazino[3,4-h]pteridine], the IC50 was 0.01 µM. For `c1cc(-c2ncc3c(n2)N2CCOCC2CN3Cc2nnnn2C2CC2)c2cc[nH]c2c1` (centres unmarked) [Example 36, 5-((1-cyclopropyl-1H-tetrazol-5-yl)methyl)-2-(1H-indol-4-yl)-5,6,6a,7,9,10-hexahydro-[1,4]oxazino[3,4-h]pteridine], the IC50 is 0.126 µM. Consider `c1ccc(-c2nc(CN3CC4COCCN4c4nc(-c5cccc6[nH]ccc56)ncc43)co2)cc1` (centres unmarked) [Example 37, 2-(1H-indol-4-yl)-5-((2-phenyloxazol-4-yl)methyl)-5,6,6a,7,9,10-hexahydro-[1,4]oxazino[3,4-h]pteridine], for which the IC50 is 0.316 µM. The result for `c1ccc(-c2nnc(CN3CC4COCCN4c4nc(-c5cccc6[nH]ccc56)ncc43)o2)cc1` (centres unmarked) [Example 38, 2-(1H-indol-4-yl)-5-((5-phenyl-1,3,4-oxadiazol-2-yl)methyl)-5,6,6a,7,9,10-hexahydro-[1,4]oxazino[3,4-h]pteridine] reads 0.0126 µM; that for `c1cc(-c2ncc3c(n2)N2CCOCC2CN3Cc2ncco2)c2cc[nH]c2c1` (centres unmarked) [Example 39, 2-(1H-indol-4-yl)-5-(oxazol-2-ylmethyl)-5,6,6a,7,9,10-hexahydro-[1,4]oxazino[3,4-h]pteridine], 0.02 µM; that for `c1ccc(-n2cc(CN3CC4COCCN4c4nc(-c5cccc6[nH]ccc56)ncc43)nn2)cc1` (centres unmarked) [Example 40], 0.0158 µM. In the case of `Cc1ccccc1CNC(=O)CN1CC2COCCN2c2nc(-c3cccc4[nH]ccc34)ncc21` (centres unmarked) [Example 41, 2-(2-(1H-indol-4-yl)-6a,7,9,10-tetrahydro-[1,4]oxazino[3,4-h]pteridin-5(6H)-yl)-N-(2-methylbenzyl)acetamide], the IC50 is 0.0316 µM. The result for `CC(C)NC(=O)CN1CC2COCCN2c2nc(-c3cccc4[nH]ccc34)ncc21` (centres unmarked) [Example 42, 2-(2-(1H-indol-4-yl)-6a,7,9,10-tetrahydro-[1,4]oxazino[3,4-h]pteridin-5(6H)-yl)-N-isopropylacetamide] reads 0.501 µM; that for `CN(C)C(=O)CN1CC2COCCN2c2nc(-c3cccc4[nH]ccc34)ncc21` (centres unmarked) [Example 43, 2-(2-(1H-indol-4-yl)-6a,7,9,10-tetrahydro-[1,4]oxazino[3,4-h]pteridin-5(6H)-yl)-N,N-dimethylacetamide], 0.398 µM. Regarding `CC(C)N(C)C(=O)CN1CC2COCCN2c2nc(-c3cccc4[nH]ccc34)ncc21` (centres unmarked) [Example 44, 2-(2-(1H-indol-4-yl)-6a,7,9,10-tetrahydro-[1,4]oxazino[3,4-h]pteridin-5(6H)-yl)-N-isopropyl-N-methylacetamide], the IC50 is 0.316 µM. The result for `N#Cc1ccccc1CN1CC2COCCN2c2nc(-c3cccc4[nH]ccc34)ncc21` (centres unmarked) [Example 45, 2-((2-(1H-indol-4-yl)-6a,7,9,10-tetrahydro-[1,4]oxazino[3,4-h]pteridin-5(6H)-yl)methyl)benzonitrile] reads 0.251 µM; that for `N#Cc1ccc(F)cc1CN1CC2COCCN2c2nc(-c3cccc4[nH]ccc34)ncc21` (centres unmarked) [Example 46, 2-((2-(1H-indol-4-yl)-6a,7,9,10-tetrahydro-[1,4]oxazino[3,4-h]pteridin-5(6H)-yl)methyl)-4-fluorobenzonitrile], 0.316 µM; that for `COc1cc(C#N)ccc1CN1CC2COCCN2c2nc(-c3cccc4[nH]ccc34)ncc21` (centres unmarked) [Example 47, 4-((2-(1H-indol-4-yl)-6a,7,9,10-tetrahydro-[1,4]oxazino[3,4-h]pteridin-5(6H)-yl)methyl)-3-methoxybenzonitrile], 0.158 µM.

In the case of `O=C(Cc1ccccc1)N1CC2COCCN2c2nc(-c3cccc4[nH]ccc34)ncc21` (centres unmarked) [Example 48, 1-(2-(1H-indol-4-yl)-6a,7,9,10-tetrahydro-[1,4]oxazino[3,4-h]pteridin-5(6H)-yl)-2-phenylethanone], the IC50 was 0.251 µM. As for `O=C(Cc1cccs1)N1CC2COCCN2c2nc(-c3cccc4[nH]ccc34)ncc21` (centres unmarked) [Example 49, 1-(2-(1H-indol-4-yl)-6a,7,9,10-tetrahydro-[1,4]oxazino[3,4-h]pteridin-5(6H)-yl)-2-(thiophen-2-yl)ethanone], the IC50 was 0.2 µM. Regarding `COc1cccc(CC(=O)N2CC3COCCN3c3nc(-c4cccc5[nH]ccc45)ncc32)c1` (centres unmarked) [Example 50, 1-(2-(1H-indol-4-yl)-6a,7,9,10-tetrahydro-[1,4]oxazino[3,4-h]pteridin-5(6H)-yl)-2-(3-methoxyphenyl)ethanone], the IC50 is 0.316 µM. In the case of `O=C(Cc1ccsc1)N1CC2COCCN2c2nc(-c3cccc4[nH]ccc34)ncc21` (centres unmarked) [Example 51, 1-(2-(1H-indol-4-yl)-6a,7,9,10-tetrahydro-[1,4]oxazino[3,4-h]pteridin-5(6H)-yl)-2-(thiophen-3-yl)ethanone] it was 0.251 µM.
